Assay results taken from ChEMBL document CHEMBL4325871 (Eur J Med Chem, 2019).

What was measured:
[1] = biological target: cAMP-dependent protein kinase catalytic subunit PRKX (Homo sapiens) (UniProt P51817); assay: Inhibition of human PRKX assessed as residual activity at 1 uM using LRRASLG as substrate by [gamma-33P]-ATP assay relative to control
[2] = biological target: Casein kinase II subunit alpha (Homo sapiens, UniProt P68400); assay: Inhibition of human CK2A assessed as residual activity at 1 uM using RRRDDDSDDD as substrate by [gamma-33P]-ATP assay relative to control
[3] = biological target: Casein kinase II subunit alpha' (Homo sapiens) (UniProt P19784); assay: Inhibition of human CK2A2 assessed as residual activity at 1 uM using RRRDDDSDDD as substrate by [gamma-33P]-ATP assay relative to control
[4] = biological target: T1, Serine/threonine-protein kinase Chk1 (Homo sapiens) (UniProt O14757); assay: Inhibition of CHK1 phosphorylation at S296 residue in human FOLFOX-resistant HT-29 cells after 24 hrs by Western blot analysis
T1 sequence (whole entry): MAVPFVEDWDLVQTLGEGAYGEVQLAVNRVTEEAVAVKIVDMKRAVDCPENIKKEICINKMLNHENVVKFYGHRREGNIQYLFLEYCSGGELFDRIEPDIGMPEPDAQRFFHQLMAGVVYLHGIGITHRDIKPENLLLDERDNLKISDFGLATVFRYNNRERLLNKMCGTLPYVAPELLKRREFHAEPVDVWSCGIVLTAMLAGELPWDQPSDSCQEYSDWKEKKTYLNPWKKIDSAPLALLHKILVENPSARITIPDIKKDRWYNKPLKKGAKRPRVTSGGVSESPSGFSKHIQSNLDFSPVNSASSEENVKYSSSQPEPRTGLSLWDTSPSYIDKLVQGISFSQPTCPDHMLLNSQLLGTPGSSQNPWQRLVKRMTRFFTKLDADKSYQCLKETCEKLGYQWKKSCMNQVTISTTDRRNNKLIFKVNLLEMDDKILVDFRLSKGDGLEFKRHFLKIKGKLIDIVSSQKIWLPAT

[5] = biological target: Myosin light chain kinase 2, skeletal/cardiac muscle (Homo sapiens) (UniProt Q9H1R3); assay: Inhibition of human MLCK2 assessed as residual activity at 1 uM using KKLNRTLSFAEPG as substrate by [gamma-33P]-ATP assay relative to control
[6] = biological target: Serine/threonine-protein kinase 26 (Homo sapiens) (UniProt Q9P289); assay: Inhibition of human MST4 assessed as residual activity at 1 uM using MBP as substrate by [gamma-33P]-ATP assay relative to control
[7] = biological target: CDK9/Cyclin-T2 (Homo sapiens) (UniProt P50750+O60583); assay: Inhibition of human CDK9/cyclin-T2 assessed as residual activity at 1 uM using KTFCGTPEYLAPEVRREPRILSEEEQEMFRDFDYIADWC as substrate by [gamma-33P]-ATP assay relative to control; type: protein-complex assay
[8] = biological target: Cyclin-dependent kinase 14/Cyclin-Y (Homo sapiens) (UniProt O94921+Q8ND76); assay: Inhibition of human CDK14/cyclin-Y assessed as residual activity at 1 uM using RB protein as substrate by [gamma-33P]-ATP assay relative to control; type: protein-complex assay
[9] = biological target: Activin receptor type-1 (Homo sapiens) (UniProt Q04771); assay: Inhibition of human ALK2 assessed as residual activity at 1 uM using casein as substrate by [gamma-33P]-ATP assay relative to control
[10] = biological target: Serine/threonine-protein kinase STK11 (Homo sapiens) (UniProt Q15831); assay: Inhibition of human LKB1 assessed as residual activity at 1 uM using LSNLYHQGKFLQTFCGSPLYRRR as substrate by [gamma-33P]-ATP assay relative to control
[11] = biological target: Hepatocyte growth factor receptor (Homo sapiens) (UniProt P08581); assay: Inhibition of human c-MET assessed as residual activity at 1 uM using KKKSPGEYVNIEFG as substrate by [gamma-33P]-ATP assay relative to control
[12] = biological target: CDK2/Cyclin O (Homo sapiens) (UniProt P24941+P22674); assay: Inhibition of human CDK2/cyclin-O assessed as residual activity at 1 uM using histone H1 as substrate by [gamma-33P]-ATP assay relative to control; type: protein-complex assay
[13] = biological target: Protein kinase C alpha type (Homo sapiens) (UniProt P17252); assay: Inhibition of human PKCalpha assessed as residual activity at 1 uM using ERMRPRKRQGSVRRRV as substrate by [gamma-33P]-ATP assay relative to control
[14] = biological target: Serine/threonine-protein kinase TAO3 (Homo sapiens) (UniProt Q9H2K8); assay: Inhibition of human TAOK3 assessed as residual activity at 1 uM using MBP as substrate by [gamma-33P]-ATP assay relative to control
[15] = biological target: Serine/threonine-protein kinase WNK3 (Homo sapiens, UniProt Q9BYP7); assay: Inhibition of human WNK3 assessed as residual activity at 1 uM using MBP as substrate by [gamma-33P]-ATP assay relative to control
[16] = biological target: Tyrosine-protein kinase ZAP-70 (Homo sapiens) (UniProt P43403); assay: Inhibition of human ZAP70 assessed as residual activity at 1 uM using poly[Glu:Tyr] (4:1) as substrate by [gamma-33P]-ATP assay relative to control
[17] = biological target: Serine/threonine-protein kinase TAO1 (Homo sapiens) (UniProt Q7L7X3); assay: Inhibition of human TAOK1 assessed as residual activity at 1 uM using MBP as substrate by [gamma-33P]-ATP assay relative to control
[18] = biological target: Vascular endothelial growth factor receptor 1 (Homo sapiens) (UniProt P17948); assay: Inhibition of human FLT1 assessed as residual activity at 1 uM using poly[Glu:Tyr] (4:1) as substrate by [gamma-33P]-ATP assay relative to control
[19] = biological target: Mitogen-activated protein kinase kinase kinase 12 (Homo sapiens) (UniProt Q12852); assay: Inhibition of human DLK assessed as residual activity at 1 uM using MBP as substrate by [gamma-33P]-ATP assay relative to control
[20] = biological target: Calcium/calmodulin-dependent protein kinase kinase 1 (Homo sapiens) (UniProt Q8N5S9); assay: Inhibition of human CAMKK1 assessed as residual activity at 1 uM using MBP as substrate by [gamma-33P]-ATP assay relative to control
[21] = biological target: Serine/threonine-protein kinase WNK1 (Homo sapiens) (UniProt Q9H4A3); assay: Inhibition of human WNK1 assessed as residual activity at 1 uM using MBP as substrate by [gamma-33P]-ATP assay relative to control
[22] = biological target: Mitogen-activated protein kinase kinase kinase 19 (Homo sapiens) (UniProt Q56UN5); assay: Inhibition of human YSK4 assessed as residual activity at 1 uM using MBP as substrate by [gamma-33P]-ATP assay relative to control
[23] = biological target: Angiopoietin-1 receptor (Homo sapiens) (UniProt Q02763); assay: Inhibition of human TIE2 assessed as residual activity at 1 uM using poly[Glu:Tyr] (4:1) as substrate by [gamma-33P]-ATP assay relative to control

Sequence of cAMP-dependent protein kinase catalytic subunit PRKX (Homo sapiens) (P51817 whole entry): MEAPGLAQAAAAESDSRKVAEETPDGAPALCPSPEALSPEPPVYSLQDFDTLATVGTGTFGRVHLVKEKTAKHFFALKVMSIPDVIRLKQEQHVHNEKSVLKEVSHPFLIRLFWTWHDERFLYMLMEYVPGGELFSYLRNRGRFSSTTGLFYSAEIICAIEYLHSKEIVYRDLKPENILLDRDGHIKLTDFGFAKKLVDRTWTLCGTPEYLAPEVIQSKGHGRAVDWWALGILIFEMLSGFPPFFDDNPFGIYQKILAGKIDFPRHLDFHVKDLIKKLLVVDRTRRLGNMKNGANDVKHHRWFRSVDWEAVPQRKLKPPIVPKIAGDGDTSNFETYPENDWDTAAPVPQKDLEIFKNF
Sequence of Serine/threonine-protein kinase WNK3 (Q9BYP7 whole entry): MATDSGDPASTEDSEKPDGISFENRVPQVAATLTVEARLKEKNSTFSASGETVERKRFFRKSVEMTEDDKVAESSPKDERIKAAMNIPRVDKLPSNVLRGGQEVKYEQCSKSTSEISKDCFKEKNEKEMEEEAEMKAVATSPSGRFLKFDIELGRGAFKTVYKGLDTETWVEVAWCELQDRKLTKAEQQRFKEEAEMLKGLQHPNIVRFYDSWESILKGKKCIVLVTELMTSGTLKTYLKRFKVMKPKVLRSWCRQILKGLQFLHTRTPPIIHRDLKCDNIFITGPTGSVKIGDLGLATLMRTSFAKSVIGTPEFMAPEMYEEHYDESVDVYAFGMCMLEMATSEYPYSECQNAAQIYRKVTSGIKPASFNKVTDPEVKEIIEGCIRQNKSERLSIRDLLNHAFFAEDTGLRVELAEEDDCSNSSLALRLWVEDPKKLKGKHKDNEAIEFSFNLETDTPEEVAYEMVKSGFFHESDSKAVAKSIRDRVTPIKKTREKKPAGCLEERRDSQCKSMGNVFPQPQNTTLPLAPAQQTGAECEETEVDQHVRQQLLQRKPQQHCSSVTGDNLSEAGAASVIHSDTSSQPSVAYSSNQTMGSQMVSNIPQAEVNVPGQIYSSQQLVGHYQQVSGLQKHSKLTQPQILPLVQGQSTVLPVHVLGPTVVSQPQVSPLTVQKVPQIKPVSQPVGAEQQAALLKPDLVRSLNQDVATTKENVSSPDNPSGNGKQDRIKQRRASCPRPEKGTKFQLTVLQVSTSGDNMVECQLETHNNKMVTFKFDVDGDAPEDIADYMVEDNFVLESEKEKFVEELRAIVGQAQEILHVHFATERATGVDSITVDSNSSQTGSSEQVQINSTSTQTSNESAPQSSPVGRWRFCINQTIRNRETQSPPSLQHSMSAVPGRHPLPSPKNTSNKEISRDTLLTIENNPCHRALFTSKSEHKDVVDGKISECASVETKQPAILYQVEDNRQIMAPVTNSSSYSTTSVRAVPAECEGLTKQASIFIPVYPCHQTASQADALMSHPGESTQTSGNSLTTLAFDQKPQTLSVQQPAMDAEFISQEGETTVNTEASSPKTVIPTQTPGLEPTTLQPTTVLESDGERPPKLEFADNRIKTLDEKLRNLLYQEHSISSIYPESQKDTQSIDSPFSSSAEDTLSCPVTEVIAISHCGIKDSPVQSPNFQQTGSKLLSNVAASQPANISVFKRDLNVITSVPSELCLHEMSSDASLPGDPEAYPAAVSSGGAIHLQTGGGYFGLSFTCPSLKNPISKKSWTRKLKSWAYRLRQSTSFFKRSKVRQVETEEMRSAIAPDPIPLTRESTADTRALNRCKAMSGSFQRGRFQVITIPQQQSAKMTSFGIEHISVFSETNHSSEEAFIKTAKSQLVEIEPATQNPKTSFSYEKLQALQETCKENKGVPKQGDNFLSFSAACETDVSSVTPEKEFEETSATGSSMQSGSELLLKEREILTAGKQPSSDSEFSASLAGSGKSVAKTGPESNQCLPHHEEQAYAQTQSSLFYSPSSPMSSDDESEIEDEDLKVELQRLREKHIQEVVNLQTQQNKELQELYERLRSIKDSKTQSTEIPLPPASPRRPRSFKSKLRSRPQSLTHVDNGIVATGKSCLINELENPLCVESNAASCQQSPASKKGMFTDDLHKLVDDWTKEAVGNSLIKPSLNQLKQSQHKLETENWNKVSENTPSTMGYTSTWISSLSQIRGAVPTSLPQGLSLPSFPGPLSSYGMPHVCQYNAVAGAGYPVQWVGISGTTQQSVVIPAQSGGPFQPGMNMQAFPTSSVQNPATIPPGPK
Sequence of Serine/threonine-protein kinase STK11 (Homo sapiens) (Q15831 whole entry): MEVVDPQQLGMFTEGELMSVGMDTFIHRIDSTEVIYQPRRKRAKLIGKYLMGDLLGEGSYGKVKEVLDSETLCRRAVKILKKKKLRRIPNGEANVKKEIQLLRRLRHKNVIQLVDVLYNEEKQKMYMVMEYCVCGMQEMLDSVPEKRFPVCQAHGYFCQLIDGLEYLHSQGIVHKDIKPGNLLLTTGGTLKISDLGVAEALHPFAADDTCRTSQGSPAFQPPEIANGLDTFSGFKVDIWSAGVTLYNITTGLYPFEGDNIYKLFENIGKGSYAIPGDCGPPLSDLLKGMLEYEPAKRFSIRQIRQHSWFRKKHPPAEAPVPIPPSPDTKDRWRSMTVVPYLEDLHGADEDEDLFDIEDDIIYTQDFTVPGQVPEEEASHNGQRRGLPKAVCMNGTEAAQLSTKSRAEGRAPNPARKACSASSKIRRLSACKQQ
Sequence of Vascular endothelial growth factor receptor 1 (Homo sapiens) (P17948 whole entry): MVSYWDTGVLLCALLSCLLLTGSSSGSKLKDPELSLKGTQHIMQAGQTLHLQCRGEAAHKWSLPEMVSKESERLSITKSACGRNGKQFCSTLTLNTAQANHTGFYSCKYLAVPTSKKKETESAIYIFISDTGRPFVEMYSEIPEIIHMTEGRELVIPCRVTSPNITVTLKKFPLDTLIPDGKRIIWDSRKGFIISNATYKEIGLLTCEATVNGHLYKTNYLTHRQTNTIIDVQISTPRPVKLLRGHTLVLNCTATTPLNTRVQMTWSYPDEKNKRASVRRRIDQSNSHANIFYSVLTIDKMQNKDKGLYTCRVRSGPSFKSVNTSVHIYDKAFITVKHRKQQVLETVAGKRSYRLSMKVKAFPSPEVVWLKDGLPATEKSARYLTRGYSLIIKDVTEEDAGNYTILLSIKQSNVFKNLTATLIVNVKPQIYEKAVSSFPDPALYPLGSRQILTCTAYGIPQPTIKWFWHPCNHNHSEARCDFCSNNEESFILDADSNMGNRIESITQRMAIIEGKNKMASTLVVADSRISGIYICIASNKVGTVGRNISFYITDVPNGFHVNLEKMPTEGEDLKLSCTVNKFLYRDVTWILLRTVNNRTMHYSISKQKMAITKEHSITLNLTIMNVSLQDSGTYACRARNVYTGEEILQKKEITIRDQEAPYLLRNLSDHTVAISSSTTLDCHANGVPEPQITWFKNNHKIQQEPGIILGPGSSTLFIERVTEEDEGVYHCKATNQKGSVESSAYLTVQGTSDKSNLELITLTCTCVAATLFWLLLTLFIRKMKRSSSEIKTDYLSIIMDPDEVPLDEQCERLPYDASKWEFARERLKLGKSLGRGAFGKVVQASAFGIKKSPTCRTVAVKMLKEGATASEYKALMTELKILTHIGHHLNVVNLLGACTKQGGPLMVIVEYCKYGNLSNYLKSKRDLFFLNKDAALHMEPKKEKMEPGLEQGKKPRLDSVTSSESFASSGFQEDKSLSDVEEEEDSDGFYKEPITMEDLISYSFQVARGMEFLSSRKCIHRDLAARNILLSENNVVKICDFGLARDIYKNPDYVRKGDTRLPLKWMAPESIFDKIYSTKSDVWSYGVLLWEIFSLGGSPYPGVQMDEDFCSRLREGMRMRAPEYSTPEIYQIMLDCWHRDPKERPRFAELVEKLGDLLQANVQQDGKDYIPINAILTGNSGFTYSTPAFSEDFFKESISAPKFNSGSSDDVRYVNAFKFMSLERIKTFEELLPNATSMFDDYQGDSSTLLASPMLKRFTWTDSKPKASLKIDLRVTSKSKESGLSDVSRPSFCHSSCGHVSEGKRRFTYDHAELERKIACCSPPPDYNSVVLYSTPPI
Sequence of Myosin light chain kinase 2, skeletal/cardiac muscle (Homo sapiens) (Q9H1R3 whole entry): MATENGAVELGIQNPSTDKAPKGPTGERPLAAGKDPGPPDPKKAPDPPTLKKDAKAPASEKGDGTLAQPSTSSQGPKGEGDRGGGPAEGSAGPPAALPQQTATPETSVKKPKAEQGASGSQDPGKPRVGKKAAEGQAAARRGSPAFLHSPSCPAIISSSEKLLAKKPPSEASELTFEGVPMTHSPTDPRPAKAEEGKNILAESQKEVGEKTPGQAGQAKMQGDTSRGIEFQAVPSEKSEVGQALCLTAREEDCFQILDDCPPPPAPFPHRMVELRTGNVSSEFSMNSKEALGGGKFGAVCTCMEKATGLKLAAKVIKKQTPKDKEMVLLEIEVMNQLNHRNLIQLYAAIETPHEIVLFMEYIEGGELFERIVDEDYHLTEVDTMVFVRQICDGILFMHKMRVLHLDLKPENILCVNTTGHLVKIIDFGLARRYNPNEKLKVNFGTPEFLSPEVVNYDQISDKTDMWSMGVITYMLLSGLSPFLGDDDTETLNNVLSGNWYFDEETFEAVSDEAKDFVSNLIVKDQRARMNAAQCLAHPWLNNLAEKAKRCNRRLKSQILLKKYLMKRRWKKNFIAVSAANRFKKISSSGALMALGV
Sequence of Calcium/calmodulin-dependent protein kinase kinase 1 (Homo sapiens) (Q8N5S9 whole entry, looked up): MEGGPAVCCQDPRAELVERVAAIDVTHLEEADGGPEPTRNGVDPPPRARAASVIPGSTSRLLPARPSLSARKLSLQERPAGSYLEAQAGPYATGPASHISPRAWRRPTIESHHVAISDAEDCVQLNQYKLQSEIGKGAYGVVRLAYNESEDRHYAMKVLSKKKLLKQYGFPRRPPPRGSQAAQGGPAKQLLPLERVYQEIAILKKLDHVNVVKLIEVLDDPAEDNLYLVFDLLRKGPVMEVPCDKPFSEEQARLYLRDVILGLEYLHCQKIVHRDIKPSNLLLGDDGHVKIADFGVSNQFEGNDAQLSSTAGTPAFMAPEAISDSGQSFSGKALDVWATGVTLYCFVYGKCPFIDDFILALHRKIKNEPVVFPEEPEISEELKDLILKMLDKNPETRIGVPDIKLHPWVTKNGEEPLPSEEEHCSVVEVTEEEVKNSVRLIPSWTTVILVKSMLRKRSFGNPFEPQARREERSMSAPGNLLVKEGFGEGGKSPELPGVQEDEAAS

Row | Compound | Activity [1] [%] | Activity [2] [%] | Activity [3] [%] | inhibition [4] | Activity [5] [%] | Activity [6] [%] | Activity [7] [%] | Activity [8] [%] | Activity [9] [%] | Activity [10] [%] | Activity [11] [%] | Activity [12] [%] | Activity [13] [%] | Activity [14] [%] | Activity [15] [%] | Activity [16] [%] | Activity [17] [%] | Activity [18] [%] | Activity [19] [%] | Activity [20] [%] | other results
1 | C(=C\c1ccccc1)/C[N+]12CN3CN(CN(C3)C1)C2 | 93.3 to 94.9 | 124 to 125 | 122 | Dose-dependent effect | 91.7 to 94.8 | 90.7 to 92.2 | 87 to 94.5 | 95.2 to 96.5 | 96.6 to 96.7 | 89.2 to 92.2 | 78.7 to 88 | 94.1 to 96.4 | 94 to 95.2 | 92.8 to 93.1 | 92.3 to 93 | 94.2 to 96.3 | 94.8 to 96 | 96.1 to 97.1 | 88.4 to 93.3 | 91.5 to 93.2 | Activity [21]: 93.6 to 94.3%; Activity [22]: 93.8 to 96.3%; Activity [23]: 91.4 to 93.7%
2 | ClC/C=C/C[N+]12CN3CN(CN(C3)C1)C2 | 95.2 to 96 | 124 to 125 | 117 to 118 | Dose-dependent effect | 93.7 to 95.3 | 83.3 to 87.1 | 95.7 to 97.6 | 96.5 to 97.3 | 94.7 to 94.8 | 92 to 94.8 | 84.9 to 90.2 | 96 to 96.3 | 93.9 to 94.3 | 94.1 to 94.7 | 90.2 to 91.3 | 90.6 to 91.5 | 95.7 to 96.8 | 94.7 to 95.5 | 71.9 to 74.8 | 95.5 to 95.7 | Activity [21]: 92.5 to 94.9%; Activity [22]: 94 to 94.8%; Activity [23]: 95.9 to 96%
